Results as given in the NIST ThermoML archive (doi:10.1016/j.jct.2016.10.047).

Assay: heat capacity at constant pressure per volume; xn = mol fraction of the nth substance listed
Conditions: 102.6 kPa, Liquid, DSC, x1 = 0.08

CCCCCCCC[n+]1ccn(C)c1.F[P-](F)(F)(F)(F)F [1-octyl-3-methylimidazolium hexafluorophosphate] + CC(C)O
Conditions	heat capacity [J/K/m3]
318.84 K	2249000
319.3 K	2241000
319.64 K	2242000
319.98 K	2241000
320.31 K	2240000
320.65 K	2241000
320.99 K	2241000
321.33 K	2240000
321.67 K	2240000
322 K	2240000
322.34 K	2241000
322.68 K	2240000
323.02 K	2240000
323.36 K	2240000
323.69 K	2240000
324.03 K	2239000
324.37 K	2239000
324.71 K	2239000
325.05 K	2240000
325.38 K	2240000
325.72 K	2238000
326.06 K	2239000
326.4 K	2239000
326.74 K	2240000
327.07 K	2239000
327.41 K	2241000
327.75 K	2240000
328.09 K	2239000
328.43 K	2240000
328.76 K	2240000
329.1 K	2240000
329.44 K	2240000
329.78 K	2240000
330.12 K	2240000
330.46 K	2241000
330.79 K	2241000
331.13 K	2237000
331.47 K	2242000
331.81 K	2239000
332.15 K	2241000
332.48 K	2241000
332.82 K	2240000
333.16 K	2239000
333.5 K	2240000
333.84 K	2241000
334.17 K	2241000
334.51 K	2241000
334.85 K	2240000
335.19 K	2243000
335.53 K	2243000
335.86 K	2242000
336.2 K	2244000
336.54 K	2243000
336.88 K	2246000
337.22 K	2247000
337.56 K	2248000
337.89 K	2251000
338.23 K	2251000
338.57 K	2254000
338.91 K	2241000
